From US20220185822A1, “SELECTIVE LIGANDS OF HUMAN CONSTITUTIVE ANDROSTANE RECEPTOR” (USTAV ORGANICKE CHEMIE A BIOCHEMIE AV CR, V.V.I., priority 2019, published 2022)

Legend:
CAR variant 3 = target: T1, CAR variant 3 (Homo sapiens, UniProt Q14994, DEL233-236); assay: Luciferase reporter gene assay with CAR variant 3 in HepG2 cells; format: cell-based; settings: tested at 1 μM; HepG2, 24 h
T1 construct: expressed in transfected cells; host or cells: HepG2
T1 sequence (Q14994 with tags, fused parts or gaps isoform Q14994-8 DEL233-236): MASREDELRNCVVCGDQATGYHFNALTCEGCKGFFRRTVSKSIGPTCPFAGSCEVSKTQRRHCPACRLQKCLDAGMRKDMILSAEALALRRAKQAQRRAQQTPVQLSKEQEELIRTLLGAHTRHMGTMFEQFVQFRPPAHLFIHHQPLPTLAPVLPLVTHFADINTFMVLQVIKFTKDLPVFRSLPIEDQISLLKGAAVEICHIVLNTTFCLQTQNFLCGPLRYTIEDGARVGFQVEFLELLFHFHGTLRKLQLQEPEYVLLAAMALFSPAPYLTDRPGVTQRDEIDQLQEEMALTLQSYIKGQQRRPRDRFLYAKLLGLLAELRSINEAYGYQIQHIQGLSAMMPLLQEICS
T1 sequence (P19793 1-462 partner): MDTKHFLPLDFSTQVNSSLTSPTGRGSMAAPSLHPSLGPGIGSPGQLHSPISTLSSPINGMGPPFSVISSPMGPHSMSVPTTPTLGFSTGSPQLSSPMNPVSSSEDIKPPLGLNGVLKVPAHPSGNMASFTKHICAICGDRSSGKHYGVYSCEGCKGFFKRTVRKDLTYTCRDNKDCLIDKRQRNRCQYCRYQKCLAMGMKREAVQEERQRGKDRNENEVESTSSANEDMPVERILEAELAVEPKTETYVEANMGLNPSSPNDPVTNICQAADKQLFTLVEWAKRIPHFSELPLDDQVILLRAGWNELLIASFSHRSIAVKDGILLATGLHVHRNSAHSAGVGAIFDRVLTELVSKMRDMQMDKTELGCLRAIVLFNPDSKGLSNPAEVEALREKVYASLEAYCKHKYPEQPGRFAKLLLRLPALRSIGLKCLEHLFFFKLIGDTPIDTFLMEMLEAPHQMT
Description: HepG2 cells were then treated with compounds of the invention for 24 h.

[1] = system: CYP2B6 mRNA in HepaRG KO CAR cells; assay: RT-qPCR of CYP2B6 mRNA in HepaRG KO CAR cells; format: cell-based, human; settings: 24 h of treatment (FIG. 3)
From the text: Delta-delta method and GAPDH/Gapdh or B2M/B2m housekeeping genes were used for relative quantification. Data are expressed as fold up-/down-regulation compare to vehicle-treated samples/mice.

NC(=O)c1cc(Cn2cc(-c3c(-c4ccc(Cl)cc4)nc4cc(F)ccn34)nn2)ccc1Cl [Example 93, 2-Chloro-5-((4-(2-(4-chlorophenyl)-7-fluoroimidazo[1,2-a]pyridin-3-yl)-1H-1,2,3-triazol-1-yl)methyl)benzamide]
CAR3 % of CITCO (1 μM) activity at 1 μM (CAR variant 3): 83%
CYP2B6 mRNA in HepaRG KO CAR cells [1]: not in HepaRG KO CAR cells
